Read-outs that look alike come from different tables or passages of the source.
Columns and labels:
[1] = system: bladder detrusor smooth muscle; assay: first in vitro test: relaxation of guinea pig bladder detrusor strips contracted with 15 mM KCl; type: cell-based, Male albino Hartley guinea pigs; conditions: for IC50: Cavia porcellus; for relaxation and reduction of the myogenic activity of guinea pig detrusor strips: first test, calcium channel blockers
Method: Male albino Hartley guinea pigs (450-500 g) are sacrificed by carbon dioxide induced asphyxiation and quickly exsanguinated. The lower abdominal cavity is opened and the urinary bladder isolated. […] The solution is warmed to 37° C. and gassed with 95% O2 and 5% CO2. With vigorous bubbling, the solution should have a pH value close to 7.4.
The dome of the washed bladder is cut off and discarded; the remaining bladder is placed on a gauze in a Petri dish containing the buffer solution. A mid-ventral longitudinal cut is made with scissors to open the bladder. The strips cut from the dome and the base edge are discarded. The remaining detrusor mid-section is cut into two horizontal strips with an approximate width of 2.0 mm. These two strips are further bisected at the mid-dorsal section, creating four strip of similar dimensions. Each strip thus contains both dorsal and ventral portions of the bladder.
The two ends of each individual strip are tied to a glass support rod and a force-displacement transducer (Grass model FR03), respectively, with 4-0 black braided silk suture.
The transducers are connected to a polygraph (Grass model 7E), which is calibrated at 5 mV/cm and the calibration checked for linearity with weights of 5 and 0.5 grams. The analog electrical output signals from the polygraph are digitized by a Modular Instrument Micro 5000 signal processing system using Biowindow Data Acquisition Software, which is run under the Microsoft OS/2 operating system with an IBM-compatible PC.
The detrusor strips on the glass rod are secured in 20 ml tissue baths and allowed to equilibrate under a preload tension of 2 grams. During the following 45 to 60 min equilibration period, the tissue is washed with fresh buffer solution at 15 min interval, with the tension adjusted, if necessary, to 2 grams prior to washing. After the equilibration period, a priming dose of 15 mM KCl (total concentration in the bath) is applied. The tissue is washed after 10 min and washed twice more at 15 min intervals with tension adjusted to 2 grams before each washing.
When the tissue relaxes to a steady state after the final washing, 15 mM KCl is again applied. Once the myogenic activity of the tissue reaches a steady state, the baseline data are acquired through the Biowindows Data Acquisition System by averaging 5 min of the myogenic data sampled at 32 Hz. Once the baseline is acquired, the experimental compounds are dosed in a cumulative manner in half log unit increments. The contact time for each dose is 10 min with the final 5 min being the period of time that the dose reponse data are required. […] The effect of the compound at each dose is expressed as % of the maximum inhibitory response, which is further normalized with respect to the corresponding effect of the compound vehicle control. The normalized response is then used to derive the IC50 of the relaxant activity of the compound through the application of Marquardt' s nonlinear iterative curve fitting technique to a standard dose-response function.

detrusor smooth muscle = assay: second in vitro test: relaxation of guinea pig detrusor strips contracted with 80 mM KCl; type: cell-based; conditions: for potency in the second test relative to the first test: 80 mM KCl vs 15 mM KCl; for relaxation and reduction of the myogenic activity of guinea pig detrusor strips: second test, calcium channel blockers
Method: This second in vitro test is similar to the one described above with regard to tissue preparation and data acquisition. However, the following exceptions are noted. In this second test, the contraction of the detrusor strips during priming and after the equilibration period is achieved with 80 mM instead of 15 mM KCl (total concentration in the bath).

[2] = ability to relax bladder smooth muscle, comparison with non-fluorinated analogs, read-out: IC50

Row | IC50 [1, 2] [nM] | Structure (SMILES) | relaxation and reduction of the myogenic activity of guinea pig detrusor strips (detrusor smooth muscle; 80 mM KCl) | further results
1 | 4100 | CC1(C)CN(c2cccc[n+]2[O-])c2cc(S(=O)(=O)c3ccccc3)ccc2O1 [*] | – | –
2 | 74 | CC1(C)CN(c2cccc[n+]2[O-])c2cc([N+](=O)[O-])ccc2O1 [@] | – | –
3 | 540 | CC1(C(F)(F)F)CN(c2cccc[n+]2[O-])c2cc(S(=O)(=O)c3ccccc3)ccc2O1 (stereo not drawn) [Example 1, 2-(2-Methyl-2-trifluoromethyl-6-phenylsulfonyl-3,4-dihydro-2H-1,4-benzoxazin-4-yl)pyridine-N-oxide] | – | IC50 ([1]; guinea pig detrusor strips, read-out: IC50 (50% decrease in the in vitro contraction of the bladder tissue)): 540 nM
4 | 25 | O=[N+]([O-])c1ccc2c(c1)N(c1cccc[n+]1[O-])CC(CF)(CF)O2 [Example 4, 2-(2,2-(bis)Fluoromethyl-6-nitro-3,4-dihydro-2-H-1,4-benzoxazine-4-yl)pyridine-N-oxide] | – | –
5 | 2250 | O=S(=O)(c1ccccc1)c1ccc2c(c1)N(c1cccc[n+]1[O-])CC(CF)(CF)O2 [Example 5, 2-(2,2-(bis)Fluoromethyl-6-phenylsulfonyl-3,4-dihydro-2H-1,4-benzoxazine-4-yl)pyridine-N-oxide] | – | –
6 | 360 | O=S(=O)(c1ccccc1)c1ccc2c(c1)N(c1cccc[n+]1[O-])CC(C(F)F)(C(F)F)O2 [Example 6, 2-(2,2-bis(Difluoromethyl)-6-phenylsulfonyl-3,4-dihydro-2H-1,4-benzoxazine-4-yl)pyridine-N-oxide] | – | –
7 | 7 | O=[N+]([O-])c1ccc2c(c1)N(c1cccc[n+]1[O-])CC(C(F)F)(C(F)F)O2 [Example 8, 2-(2,2-bis(Difluoromethyl)-6-nitro-3,4-dihydro-2H-1,4-benzoxazine-4-yl)pyridine-N-oxide] | – | –
8 | – | CC1(C)Oc2ccc(C#N)cc2C(N2CCCC2=O)C1O (stereo not drawn) [cromakalim] | – | relaxant activity in the second test (detrusor smooth muscle; 80 mM KCl, at concentrations as high as 30 μM): insignificant relaxant activity; IC50 ([1]; putative potassium channel opener, read-out: relaxant activity IC50 in the first test): 600 to 900 nM
9 | – | COC(=O)C1=C(C)NC(C)=C(C(=O)OC(C)C)C1c1cccc2nonc12 (stereo not drawn) [isradipine] | able to relax and reduce the myogenic activity | potency in the second test relative to the first test (detrusor smooth muscle): more potent in the second test; relaxation and reduction of the myogenic activity of guinea pig detrusor strips [1]: able to relax and reduce the myogenic activity
10 | – | COC(=O)C1=C(C)NC(C)=C(C(=O)OC)C1c1ccccc1[N+](=O)[O-] [nifedipine] | able to relax and reduce the myogenic activity | –
11 | – | COCCOC(=O)C1=C(C)NC(C)=C(C(=O)OC(C)C)C1c1cccc([N+](=O)[O-])c1 (stereo not drawn) [nimodipine] | able to relax and reduce the myogenic activity | potency in the second test relative to the first test (detrusor smooth muscle): more potent in the second test; relaxation and reduction of the myogenic activity of guinea pig detrusor strips [1]: able to relax and reduce the myogenic activity
12 | – | COc1ccc(Cc2nccc3cc(OC)c(OC)cc23)cc1OC [papaverine] | – | abolition of the KCl-induced tension (detrusor smooth muscle; 80 mM KCl, 300 μM, maximum response): totally abolished
13 | – | COc1ccc(CCN(C)CCCC(C#N)(c2ccc(OC)c(OC)c2)C(C)C)cc1OC (stereo not drawn) [verapamil] | able to relax and reduce the myogenic activity | potency in the second test relative to the first test (detrusor smooth muscle): more potent in the second test; relaxation and reduction of the myogenic activity of guinea pig detrusor strips [1]: able to relax and reduce the myogenic activity
